Experiments:
Format in all cases: in vivo
[1] = system: heartshape false pickerelweed (Monochoria vaginalis (Burm.f.) C.Presl); test: Test Example 1: herbicidal effect by soil application to paddy field; conditions: paddy field soil application; active ingredient 1,000 g per 1 hectare; wettable powder added dropwise to water surface the day after sowing; examined on the 21st day after application
How it was run: (§1)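 Under greenhouse conditions, seeds sown on puddled paddy soil in 100 cm2 pots under 3 cm of standing water received the test compound; injury was assessed with a standard scoring scheme three weeks (day 21) after treatment.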

[2] = system: early watergrass (Echinochloa oryzicola Vasing); test: as above; conditions: paddy field soil application; active ingredient 1,000 g per 1 hectare; wettable powder added dropwise to water surface the day after sowing; examined on the 21st day after application
How it was run: as §1

[3] = system: Japanese bulrush (Scirpus juncoides Roxb.); test: as above; conditions: paddy field soil application; active ingredient 1,000 g per 1 hectare; wettable powder added dropwise to water surface the day after sowing; examined on the 21st day after application
How it was run: as §1

[4] = system: green foxtail (Setaria viridis (L.) P. Beauv.); test: Test Example 2: herbicidal effect by soil application to upland field; conditions: soil surface spray, upland field soil, 1,000 g active ingredient per hectare, 21st day after application
How it was run: (§2)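 Soil surface treatment after sowing: wettable powder in water, 1,000 g a.i./ha, spray volume 1,000 L/ha. Greenhouse. Scored on a standard herbicidal scale at day 21.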

[5] = system: barnyardgrass (Echinochloa crus-galli (L.) P. Beauv. var. crus-galli); test: as above; conditions: soil surface spray, upland field soil, 1,000 g active ingredient per hectare, 21st day after application
How it was run: as §2

[6] = system: velvetleaf (Abutilon theophrasti medicus); test: as above; conditions: soil surface spray, upland field soil, 1,000 g active ingredient per hectare, 21st day after application
How it was run: as §2

[7] = system: slender amaranth (Amaranthus viridis L.); test: as above; conditions: soil surface spray, upland field soil, 1,000 g active ingredient per hectare, 21st day after application
How it was run: as §2

[8] = system: green foxtail (Setaria viridis (L.) P. Beauv.); test: Test Example 3: herbicidal effect by application to upland field (foliage treatment); conditions: foliage treatment, plants grown two weeks, 1,000 g active ingredient per hectare, 14th day after application
How it was run: (§3)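 Foliar spray on two-week-old greenhouse weeds in field soil: wettable powder formulation diluted in water, applied at 1,000 L/ha to give 1,000 g a.i./ha. Damage rated by a fixed scoring standard on day 14 after application.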

[9] = system: barnyardgrass (Echinochloa crus-galli (L.) P. Beauv. var. crus-galli); test: as above; conditions: foliage treatment, plants grown two weeks, 1,000 g active ingredient per hectare, 14th day after application
How it was run: as §3

[10] = system: velvetleaf (Abutilon theophrasti medicus); test: as above; conditions: foliage treatment, plants grown two weeks, 1,000 g active ingredient per hectare, 14th day after application
How it was run: as §3

[11] = system: slender amaranth (Amaranthus viridis L.); test: as above; conditions: foliage treatment, plants grown two weeks, 1,000 g active ingredient per hectare, 14th day after application
How it was run: as §3

| SMILES | herbicidal effect, Monochoria vaginalis (Burm. f.) C. Presl [1] | herbicidal effect, Echinochloa oryzicola Vasing [2] | herbicidal effect, Scirpus juncoides Roxb. [3] | herbicidal effect (index), Green Foxtail [4] | herbicidal effect (index), Barnyardgrass [5] | herbicidal effect (index), Velvetleaf [6] | herbicidal effect (index), Slender Amaranth [7] | herbicidal effect (index), Green Foxtail [8] | herbicidal effect (index), Barnyardgrass [9] | herbicidal effect (index), Velvetleaf [10] | herbicidal effect (index), Slender Amaranth [11] |
| --- | --- | --- | --- | --- | --- | --- | --- | --- | --- | --- | --- |
| O=C1CCCC(O)=C1C(=O)c1ccc(C(F)(F)F)n(-c2cccc([N+](=O)[O-])c2)c1=O [I-87] | 5 (90% or more of herbicidal effect and crop phytotoxicity) | 5 (90% or more of herbicidal effect and crop phytotoxicity) | 5 (90% or more of herbicidal effect and crop phytotoxicity) | 5 (90% or more of herbicidal effect and crop phytotoxicity) | 5 (90% or more of herbicidal effect and crop phytotoxicity) | 5 (90% or more of herbicidal effect and crop phytotoxicity) | 5 (90% or more of herbicidal effect and crop phytotoxicity) | 5 (90% or more of herbicidal effect and crop phytotoxicity) | 5 (90% or more of herbicidal effect and crop phytotoxicity) | 5 (90% or more of herbicidal effect and crop phytotoxicity) | 5 (90% or more of herbicidal effect and crop phytotoxicity) |
| O=C1CCCC(O)=C1C(=O)c1ccc(C(F)(F)F)n(-c2ccc([N+](=O)[O-])cc2)c1=O [I-88] | 5 (90% or more of herbicidal effect and crop phytotoxicity) | 5 (90% or more of herbicidal effect and crop phytotoxicity) | 5 (90% or more of herbicidal effect and crop phytotoxicity) | 5 (90% or more of herbicidal effect and crop phytotoxicity) | 5 (90% or more of herbicidal effect and crop phytotoxicity) | 5 (90% or more of herbicidal effect and crop phytotoxicity) | 5 (90% or more of herbicidal effect and crop phytotoxicity) | 5 (90% or more of herbicidal effect and crop phytotoxicity) | 5 (90% or more of herbicidal effect and crop phytotoxicity) | 5 (90% or more of herbicidal effect and crop phytotoxicity) | 5 (90% or more of herbicidal effect and crop phytotoxicity) |
| Cc1ccc(-n2c(C(F)(F)F)ccc(C(=O)C3=C(O)CCCC3=O)c2=O)cc1 [I-89] | 5 (90% or more of herbicidal effect and crop phytotoxicity) | 5 (90% or more of herbicidal effect and crop phytotoxicity) | 5 (90% or more of herbicidal effect and crop phytotoxicity) | 5 (90% or more of herbicidal effect and crop phytotoxicity) | 5 (90% or more of herbicidal effect and crop phytotoxicity) | 5 (90% or more of herbicidal effect and crop phytotoxicity) | 5 (90% or more of herbicidal effect and crop phytotoxicity) | 5 (90% or more of herbicidal effect and crop phytotoxicity) | 5 (90% or more of herbicidal effect and crop phytotoxicity) | 5 (90% or more of herbicidal effect and crop phytotoxicity) | 5 (90% or more of herbicidal effect and crop phytotoxicity) |
| O=C1CCCC(O)=C1C(=O)c1ccc(C(F)(F)F)n(-c2ccc(Br)cc2)c1=O [I-90] | 5 (90% or more of herbicidal effect and crop phytotoxicity) | 5 (90% or more of herbicidal effect and crop phytotoxicity) | 5 (90% or more of herbicidal effect and crop phytotoxicity) | 5 (90% or more of herbicidal effect and crop phytotoxicity) | 5 (90% or more of herbicidal effect and crop phytotoxicity) | 5 (90% or more of herbicidal effect and crop phytotoxicity) | 5 (90% or more of herbicidal effect and crop phytotoxicity) | 5 (90% or more of herbicidal effect and crop phytotoxicity) | 5 (90% or more of herbicidal effect and crop phytotoxicity) | 5 (90% or more of herbicidal effect and crop phytotoxicity) | 5 (90% or more of herbicidal effect and crop phytotoxicity) |
| O=C1CCCC(O)=C1C(=O)c1ccc(C(F)(F)F)n(-c2ccccc2F)c1=O [I-91] | 5 (90% or more of herbicidal effect and crop phytotoxicity) | 5 (90% or more of herbicidal effect and crop phytotoxicity) | 5 (90% or more of herbicidal effect and crop phytotoxicity) | 5 (90% or more of herbicidal effect and crop phytotoxicity) | 5 (90% or more of herbicidal effect and crop phytotoxicity) | 5 (90% or more of herbicidal effect and crop phytotoxicity) | 5 (90% or more of herbicidal effect and crop phytotoxicity) | 4 (70 to less than 90% of herbicidal effect and crop phytotoxicity) | 5 (90% or more of herbicidal effect and crop phytotoxicity) | 5 (90% or more of herbicidal effect and crop phytotoxicity) | 5 (90% or more of herbicidal effect and crop phytotoxicity) |
| O=C1CCCC(O)=C1C(=O)c1ccc(C(F)(F)F)n(-c2cccc(F)c2)c1=O [I-92] | 5 (90% or more of herbicidal effect and crop phytotoxicity) | 5 (90% or more of herbicidal effect and crop phytotoxicity) | 5 (90% or more of herbicidal effect and crop phytotoxicity) | 5 (90% or more of herbicidal effect and crop phytotoxicity) | 5 (90% or more of herbicidal effect and crop phytotoxicity) | 5 (90% or more of herbicidal effect and crop phytotoxicity) | 5 (90% or more of herbicidal effect and crop phytotoxicity) | 5 (90% or more of herbicidal effect and crop phytotoxicity) | 5 (90% or more of herbicidal effect and crop phytotoxicity) | 5 (90% or more of herbicidal effect and crop phytotoxicity) | 5 (90% or more of herbicidal effect and crop phytotoxicity) |
| O=C1CCCC(O)=C1C(=O)c1ccc(C(F)(F)F)n(-c2ccc(F)cc2)c1=O [I-93] | 5 (90% or more of herbicidal effect and crop phytotoxicity) | 5 (90% or more of herbicidal effect and crop phytotoxicity) | 5 (90% or more of herbicidal effect and crop phytotoxicity) | 5 (90% or more of herbicidal effect and crop phytotoxicity) | 5 (90% or more of herbicidal effect and crop phytotoxicity) | 5 (90% or more of herbicidal effect and crop phytotoxicity) | 5 (90% or more of herbicidal effect and crop phytotoxicity) | 5 (90% or more of herbicidal effect and crop phytotoxicity) | 5 (90% or more of herbicidal effect and crop phytotoxicity) | 5 (90% or more of herbicidal effect and crop phytotoxicity) | 5 (90% or more of herbicidal effect and crop phytotoxicity) |
| N#Cc1cccc(-n2c(C(F)(F)F)ccc(C(=O)C3=C(O)CCCC3=O)c2=O)c1 [I-94] | 5 (90% or more of herbicidal effect and crop phytotoxicity) | 5 (90% or more of herbicidal effect and crop phytotoxicity) | 5 (90% or more of herbicidal effect and crop phytotoxicity) | 5 (90% or more of herbicidal effect and crop phytotoxicity) | 5 (90% or more of herbicidal effect and crop phytotoxicity) | 5 (90% or more of herbicidal effect and crop phytotoxicity) | 5 (90% or more of herbicidal effect and crop phytotoxicity) | 5 (90% or more of herbicidal effect and crop phytotoxicity) | 5 (90% or more of herbicidal effect and crop phytotoxicity) | 5 (90% or more of herbicidal effect and crop phytotoxicity) | 5 (90% or more of herbicidal effect and crop phytotoxicity) |
